From article PMC2874192 (Cancer research, 2010)

Assays:
CXCR4 receptor = details: Cu-bound vs unbound AMD3100; cited from earlier work
[1] = no reference given; cited from earlier work
[2] = humans, within 24 h, primarily through kidneys; cited from earlier work
[3] = system: U87 and U87-stb-CXCR4 glioblastoma xenografts; assay: Ex vivo biodistribution in subcutaneous brain tumor model; set-up: species or system NOD/SCID mice; details: 740 kBq, 90 min after injection
[4] = system: U87 and U87-stb-CXCR4 glioblastoma xenografts; assay type: in vivo; details: whole body image at 90 min

Row | Structure (SMILES) | increase of affinity to the CXCR4 receptor by Cu bound to the cyclam (CXCR4 receptor) [fold] | plasma protein bound [1] [%] | drug eliminated as parent [2] [%] | radioactivity distribution (ex vivo biodistribution) [3] | distribution of radiotracer (PET) [4]
1 | c1cc(CN2CCCNCCNCCCNCC2)ccc1CN1CCCNCCNCCCNCC1 [AMD3100] | 6 | ~58 | ~70 | – | –
2 | [Cl][64Cu][Cl] [[^64Cu]CuCl2] | – | – | – | uniform | uniform distribution
